± gives the expanded uncertainty stated by the source.
Conditions: Crystal; DTA

Which Normal melting temperature does the source give for CCCCCCCCCCCC(=O)O [dodecanoic acid] here?
The Normal melting temperature was 44.6 ± 0.9 °C.

Which Normal melting temperature does the source give for CCCCCCCCCCCCCCCC(=O)O [hexadecanoic acid] here?
Its Normal melting temperature is 63 ± 1.1 °C.

With CCCCCCCCCCCCCCCCCC(=O)O [octadecanoic acid] as the compound, how does the Normal melting temperature read?
Its Normal melting temperature is 69.8 ± 0.5 °C.

Which Normal melting temperature does the source give for CCCCCCCCCCCCCC(=O)O [tetradecanoic acid] here?
The Normal melting temperature was 54.4 ± 0.5 °C.
